Legend:
[1] = Inhibition of ATPase activity of myosin 2 in mouse C2C12 myoblast assessed as release of inorganic phosphates
[2] = target: Dual specificity mitogen-activated protein kinase kinase 1 (Mus musculus, UniProt P31938); experiment: Inhibition of MEK1 in mouse C2C12 by ERK2 phosphorylation assay
C2C12 = experiment: Inhibition of myotube formation in mouse C2C12 myoblasts at 20 nM; conditions: C2C12, read-out: INH

Chain of Dual specificity mitogen-activated protein kinase kinase 1 (P31938 whole entry): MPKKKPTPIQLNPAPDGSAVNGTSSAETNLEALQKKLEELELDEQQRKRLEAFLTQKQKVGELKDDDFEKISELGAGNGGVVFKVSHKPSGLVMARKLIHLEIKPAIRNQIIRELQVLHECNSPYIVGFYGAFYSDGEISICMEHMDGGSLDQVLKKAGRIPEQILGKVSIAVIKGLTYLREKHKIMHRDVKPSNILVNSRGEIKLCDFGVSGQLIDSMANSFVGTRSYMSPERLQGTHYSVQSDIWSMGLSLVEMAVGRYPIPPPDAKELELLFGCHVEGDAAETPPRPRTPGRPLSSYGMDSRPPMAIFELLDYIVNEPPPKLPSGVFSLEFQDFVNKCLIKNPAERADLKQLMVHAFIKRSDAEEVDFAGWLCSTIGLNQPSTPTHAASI

c1nc2c(NC3CCCCC3)nc(Nc3ccc(N4CCOCC4)cc3)nc2[nH]1 [REVERSINE]
IC50 [1]: 10 nM
IC50 [2]: 8 nM
inhibition at 0.02 µM (C2C12): > 60%

— ChEMBL document CHEMBL1156479, “Reversine increases the plasticity of lineage-committed mammalian cells” (Proc Natl Acad Sci U S A, 2007)
